From PMC11519904, “Comprehensive Cell Biological Investigation of Cytochalasin B Derivatives with Distinct Activities on the Actin Network” (Journal of Natural Products, 2024)
“And” between values parts separate entries of the source, which are not always exact repeats. Identical values can stand only once. “Also recorded” adds a separate entry of the source. Like-named read-outs stand apart in the source and are kept apart here.

What was measured:
L929 (mouse fibroblast) = test: Cytotoxicity assay (MTT), L929; format: cell-based; conditions: Mus musculus, L929, 120 h, read-out: IC50 L929
Method: (§1) The cytotoxicity assay was implemented in 96-well flat-bottom microtiter plates following a reported procedure.[21],[22],[33] The mammalian cell lines L929 (mouse fibroblast) and KB3.1 (human cervix carcinoma) were cultivated at 37 °C and 10% CO2 in Dulbecco’s modified minimum essential medium (DMEM, Life Technologies, Carlsbad, CA, USA) supplemented with 10% fetal bovine serum (FBS, Life Technologies). The microtiter plate was filled with 120 μL of suspended cells (50,000/mL), and 60 μL of a serial dilution of the test compound was added. After 5 days of incubation, growth inhibition (IC50) was determined by a colorimetric tetrazolium dye MTT assay.[34] The compounds were dissolved in MeOH (1 mg/mL), MeOH was used as negative control, and epothilone[35] (1 mg/mL) was used as positive control.

[1] = test system: filamentous actin (F-actin) in U-2OS wild type (wt) cells; test: Actin disruption assay in U-2OS cells (phalloidin staining); format: cell-based, human; conditions: for effect on F-actin network, high dose 1 h: 5 x IC50 (L929), compared to control; for effect on actin and nuclei number, high dose 24 h: 5 x IC50, 24 h, differences between 1 and 24 h treatment
Method: For this, the human osteosarcoma cell line U-2OS was treated using concentrations estimated based on previously determined IC50 values in murine L929 fibroblasts (Table 1), referred to as low dose (1 × IC50), and a 5-fold concentration, referred to as high dose (5 × IC50). Reorganization of the F-actin network was also investigated upon high dose treatment, followed by washout and a 1 h recovery phase in fresh medium. The impact on F-actin network organization was visualized using fluorescently labeled phalloidin (Figure 2). […] In addition, the effects on F-actin structures observed upon high dose treatment of all compounds were fully reversible after a 1 h recovery time (Figure 2m–q).
The respective previously determined IC50 values in L929 were used to calculate the treatment concentration (1 × IC50: low dose; 5 × IC50: high dose).[37] DMSO was used as the vehicle control, corresponding to the highest compound volume used in the assay. Coverslips were coated with 25 μg/mL fibronectin (Roche, Mannheim, Germany) diluted 1:40 in phosphate buffered saline (PBS, pH 7.4, Life Technologies), and cells were seeded at a density of 20,000 cells and allowed to spread overnight. CO2-equilibrated culture medium was spiked with the desired compound and DMSO, respectively, in the above-mentioned concentration, and cells were treated with prepared medium for 1 h under cell culture conditions. For long-term experiments, the treatment phase was extended to 24 h. Cells were washed once and fixed afterward using 4% prewarmed paraformaldehyde (PFA) supplied in PBS for 20 min at 37 °C, followed by three additional washing steps with prewarmed PBS buffer. In addition, the reversibility of high dose effects on F-actin network organization was investigated by a washout procedure including three times prewarmed PBS wash steps prior to the addition of fresh medium and a recovery time of 1 h before fixation. In the case of 24 h treatments, the recovery phase was extended to 47 h. Cells were permeabilized with 0.1% Triton X-100 (Bio-Rad Laboratories, Hercules, CA, USA) in PBS buffer for 1 min at room temperature, washed three times with PBS, and stained for F-actin using ATTO-594-coupled phalloidin (ATTO-Tec, Siegen, Germany) diluted in PBS buffer (1:100) for 1 h at room temperature. Coverslips were washed thrice in PBS and mounted in ProLong Diamond antifade mountant (Invitrogen) containing DAPI to probe for nuclear DNA. Cells were recorded using an inverted microscope (Nikon Eclipse Ti2, Tokyo, Japan) equipped with a 60 times Nikon oil immersion objective (Plan Apofluar, 1.4 NA), a pE-4000 (CoolLED, Andover, UK) as light source, and a pco.edge back-illuminated sCMOS camera (Excelitas Technologies, Mississauga, ON, Canada). The microscopy system was operated by and images were recorded with NIS (Nikon) and processed with ImageJ (NIH, Bethesda, MD, USA).

[2] = target: T1, actin (G-actin purified from rabbit skeletal muscle) (Oryctolagus cuniculus, UniProt P68135); test: Pyrene actin polymerization assay; format: biochemical; conditions: 2 μM compound, 2 μM actin (5% pyrene-actin), 550 nM actin seeds, after 30 min; control = 100%
T1 construct: 1.5 kg of fresh rabbit skeletal muscle was minced with a meat grinder; from tissue; host or cells: rabbit skeletal muscle (acetone powder)
Text: To rule out that the reduced in cellulo efficacies of 3–5 could instead be explained by an altered membrane permeability of modified compounds or their differential effects on other intracellular factors, pyrene actin polymerization assays[23] were used to analyze potential effects on actin assembly in vitro under defined conditions. Globular actin (G-actin) was purified from rabbit skeletal muscle[24] and fluorescently labeled with pyrene (see description in the Supporting Information). G-actin (2 μM) supplemented with 5% pyrene-labeled actin was added to actin seeds and the respective compound (2 μM) in polymerization buffer to initiate the reaction. Actin polymerization was then assessed by reading out the increasing pyrene fluorescence signal over time (Figure 3).
Acetone powder and G-actin were prepared as described previously.[24] Briefly, 1.5 kg of fresh rabbit skeletal muscle was minced with a meat grinder. Subsequently, the meat was stirred for 15 min in 2.5 L of high-salt buffer (0.5 M KCl, 0.1 M K2HPO4, 2 mM benzamidine, pH 6.4) and then pelleted at 4000g for 10 min. The supernatant was discarded, and the pellet was extracted once more with high-salt buffer and then washed twice with ice-cold ddH2O adjusting the slurry with 1 M Na2CO3 to pH 8.3 until a slight swelling of the pellet became visible. The pellet was then resuspended in ice-cold acetone, stirred for 15 min, and then centrifuged for 10 min at 4000g. The supernatant was discarded, and the pellet was washed once more with acetone before the pellet was broken up and dried in small pieces on aluminum foil under a fume hood overnight. The dried acetone powder was stored at −80 °C for further use.
For purification of G-actin, 5 g of the acetone powder was extracted five times with 50 mL of G-buffer containing 2 mM Tris-HCl, pH 8.0, 0.2 mM CaCl2, 0.5 mM DTT, 0.2 mM Na2ATP, and 0.1 mg/mL NaN3. After each step, the solution was filtered through a fine gauze, yielding a total volume of 250 mL. Subsequently, the solution was centrifuged for 30 min at 20,000g at 4 °C. Actin in the supernatant was then polymerized by addition of 25 × polymerization buffer (250 mM Tris-HCl pH 8.0, 1250 mM KCl, 25 mM Na2ATP, 50 mM MgCl2 × 6 H2O) overnight. Subsequently, KCl was added to a final concentration of 750 mM, followed by centrifugation of the solution at 150,000g at 4 °C for 3 h. The F-actin pellet was then homogenized with 25 mL of G-actin buffer using a potter and then dialyzed against G-buffer. After a final centrifugation step at 150,000g at 4 °C for 3 h, G-actin was purified by size exclusion chromatography using a HiLoad 26/75 Superdex 200 column. Actin concentrations were determined by measuring the absorbance at 290 nm and using an extinction coefficient of 26,600 M^–1 cm^–1.
For pyrene labeling, 10–20 mL of G-actin solution were dialyzed against labeling buffer following the procedure described by Doolittle et al.[38] […]
Pyrene assays were conducted to assess the inhibitory properties of cytochalasins on actin polymerization under defined conditions in vitro using G-actin and actin seeds. The degree of labeling was determined; EC290 nm actin: 26600 1/M × cm; EC342 nm pyrene: 31091 1/M × cm. […]

[3] = test system: glucose carrier in human erythrocytes; conditions: human erythrocytes ref 29, 30; cited from earlier work
[4] = test system: human potassium channel hKv1.5; set-up: method as in PMID 15800051; conditions: cited from earlier work
[5] = test system: KB3.1 (human cervix carcinoma); test: Cytotoxicity assay (MTT), KB3.1; format: cell-based; conditions: Homo sapiens, KB 3-1, 120 h, read-out: IC50 KB3.1
Method: as §1

[6] = 5 days of incubation, MTT, NC: no cytotoxic effect, or only weak inhibition of proliferation

For `C=C1[C@@H](C)[C@H]2[C@H](Cc3ccccc3)NC(=O)[C@]23OC(=O)/C=C/[C@H](O)CCC[C@@H](C)C/C=C/[C@H]3[C@@H]1O` [Compound 2, cytochalasin B], the IC50 (L929 (mouse fibroblast); [6]) was 1300 nM, the “effect on F-actin network, low dose” value ([1]; 1 x IC50 (L929), 1 h) was “partially led to compromised lamellipodia and a reduction of intermittent, cytoplasmic F-actin” and the “effect on F-actin network, high dose 1 h” value ([1]; 1 h) was “complete collapse of the F-actin network; also recorded: actin disruption”. The “effect on actin and nuclei number, high dose 24 h” value [1] was “+ multinucleation; also recorded: formation of multinucleated cells”, the “relative actin polymerization rate” value [2] was 45% and the “inhibition of glucose transport” value [3] was “inhibits glucose transport”. The “inhibitory activity on hKv1.5” value [4] was “inhibitory activity”.
With `C=C1[C@@H](C)[C@H]2[C@H](Cc3ccccc3)N(C)C(=O)[C@]23OC(=O)/C=C/[C@H](O)CCC[C@@H](C)C/C=C/[C@H]3[C@@H]1O` [Compound 4, N-methyl cytochalasin B] the IC50 (L929 (mouse fibroblast); [6]) was > 10000 nM, the “effect on F-actin network, high dose 1 h” value ([1]; 1 h) was “only slight; also recorded: moderate effects” and the “effect on actin and nuclei number, high dose 24 h” value [1] was “caused multinucleation, but left the actin network largely unchanged”. For the same compound, the “relative actin polymerization rate” value [2] was 83% and 84–86% and 84%.
Compound `C/C(=C\c1csc(C)n1)[C@@H]1C[C@@H]2O[C@]2(C)CCC[C@H](C)[C@H](O)[C@@H](C)C(=O)C(C)(C)[C@@H](O)CC(=O)O1` [Epothilone B, reference compound] has an IC50 (L929 (mouse fibroblast)) of 0.58 nM and an IC50 [5] of 0.095 nM.
